# Measured values taken from PMC11266714, “Extraction optimization and reactivity of 7α-acetoxy-6β-hydroxyroyleanone and ability of its derivatives to modulate PKC isoforms” (Scientific Reports, 2024).
# Where two headings read alike, the source gives them in different places.
# Key:
# [1] = molecular target: T1, PKC-ζ (Mus musculus, UniProt Q02956); experiment: Yeast PKC assay, PKC-ζ; type: cell-based
# T1 construct: expressed in transfected cells; host or cells: Saccharomyces cerevisiae
# T1 sequence (Q02956 1-592): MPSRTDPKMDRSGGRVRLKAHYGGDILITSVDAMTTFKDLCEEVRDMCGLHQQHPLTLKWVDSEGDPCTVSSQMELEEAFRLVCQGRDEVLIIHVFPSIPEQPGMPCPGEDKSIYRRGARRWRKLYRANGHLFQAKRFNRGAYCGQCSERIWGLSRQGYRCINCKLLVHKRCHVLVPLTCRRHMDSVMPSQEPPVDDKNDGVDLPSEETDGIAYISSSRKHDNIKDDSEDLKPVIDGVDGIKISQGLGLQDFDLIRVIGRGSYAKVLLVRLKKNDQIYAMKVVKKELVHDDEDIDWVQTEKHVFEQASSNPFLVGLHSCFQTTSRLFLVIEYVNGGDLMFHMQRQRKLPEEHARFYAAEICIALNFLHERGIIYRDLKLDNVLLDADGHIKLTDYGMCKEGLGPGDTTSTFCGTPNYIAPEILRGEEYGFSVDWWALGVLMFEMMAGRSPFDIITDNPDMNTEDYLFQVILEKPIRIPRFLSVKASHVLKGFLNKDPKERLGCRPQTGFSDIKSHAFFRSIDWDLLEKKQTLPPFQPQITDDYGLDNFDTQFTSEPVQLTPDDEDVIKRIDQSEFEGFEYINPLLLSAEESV
# From the text: (§1) PKC isoforms are key targets for cancer therapy due to their significant roles in cancer development and progression. The selective-PKC-δ activation observed for RoyBz is well established. Nonetheless, it is important to understand the effect of Roy on PKC isoforms. Due to the specificity of the assay, it was decided to evaluate only few compounds: the natural ones Roy and DeRoy and two derivatives, one aromatic ester RoyBz and one aliphatic ester RoyPr[27] as PKC-α, -βI, -δ, -ε, and -ζ activators using the yeast PKC assay.
# (§2) For the determination of EC50 values were considered the concentration of compound that caused 50% of the maximal growth inhibition caused by the positive controls (phorbol 12-myristate 13-acetate, PMA, for cPKCs and nPKCs; arachidonic acid, ARA, for PKCζ), which was set as 100%. Data are mean ± SEM of four independent experiments. nt, not tested; ND, non-determinable (when the maximal response achieved was lower than 50% growth inhibition).
# (§3) The royleanones Roy, RoyBz and RoyPr were tested on the yeast assay as reported in[3]. Briefly, Saccharomyces cerevisiae cells individually expressing mammalian PKC-α, -βI, -δ, -ε, or -ζ, and control yeast (transformed with empty vector) obtained in previous works were used. Cells were grown in galactose selective medium in the presence of 0.1—30 μM of compounds (or 0.1% DMSO only) for approximately 42 h. Yeast growth was analyzed by counting the number of colony-forming units, after 2 days incubation at 30 °C. The growth of yeast transformed with the empty vector (control) was considered as 100%. From the dose–response curves obtained, EC50 (half maximal effective concentration) values were determined for the tested compounds.
# [2] = system: MCF-7 human breast adenocarcinoma cells; conditions: cited from earlier work
# [3] = molecular target: T2, PKC-δ (Rattus norvegicus, UniProt P09215); experiment: Yeast PKC assay, PKC-δ; type: cell-based
# T2 construct: expressed in transfected cells; host or cells: Saccharomyces cerevisiae
# From the text: as §1, §2, §3
# [4] = molecular target: T3, PKC-ε (Homo sapiens, UniProt Q02156); experiment: Yeast PKC assay, PKC-ε; type: cell-based
# T3 construct: expressed in transfected cells; host or cells: Saccharomyces cerevisiae
# T3 sequence (Q02156 1-737): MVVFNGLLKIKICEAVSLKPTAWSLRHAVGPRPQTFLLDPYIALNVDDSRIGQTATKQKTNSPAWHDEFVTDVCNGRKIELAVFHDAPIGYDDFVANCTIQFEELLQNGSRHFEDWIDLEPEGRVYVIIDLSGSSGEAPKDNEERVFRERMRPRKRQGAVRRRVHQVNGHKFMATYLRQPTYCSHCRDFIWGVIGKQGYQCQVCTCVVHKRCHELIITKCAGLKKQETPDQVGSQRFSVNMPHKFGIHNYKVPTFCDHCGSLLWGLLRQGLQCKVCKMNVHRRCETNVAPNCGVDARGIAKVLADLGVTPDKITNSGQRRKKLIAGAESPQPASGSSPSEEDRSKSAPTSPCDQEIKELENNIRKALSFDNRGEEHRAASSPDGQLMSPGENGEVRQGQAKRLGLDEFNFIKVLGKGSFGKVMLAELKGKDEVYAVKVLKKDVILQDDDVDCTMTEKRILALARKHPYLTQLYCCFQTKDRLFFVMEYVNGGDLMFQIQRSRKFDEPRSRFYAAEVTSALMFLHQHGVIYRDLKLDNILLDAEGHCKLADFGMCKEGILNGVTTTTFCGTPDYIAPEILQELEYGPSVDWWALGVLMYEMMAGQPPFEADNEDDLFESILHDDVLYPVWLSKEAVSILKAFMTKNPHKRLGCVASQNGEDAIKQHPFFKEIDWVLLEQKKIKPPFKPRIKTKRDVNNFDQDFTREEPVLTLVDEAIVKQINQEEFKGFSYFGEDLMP
# From the text: as §1, §2, §3
# [5] = molecular target: T4, PKC-α (Bos taurus, UniProt P04409); experiment: Yeast PKC assay, PKC-α; type: cell-based, yeast (Saccharomyces cerevisiae)
# T4 construct: expressed in transfected cells; host or cells: Saccharomyces cerevisiae
# From the text: as §1, §2, §3
# [6] = system: MCF-7 human breast adenocarcinoma cells; experiment: Sulforhodamine B (SRB) cell proliferation assay, MCF-7; type: cell-based
# Protocol: (§4) The cytotoxic effect (IC50 values, Table 4) was determined from dose–response curves.
# (§5) Royleanones and doxorubicin (Doxo) were tested on human breast adenocarcinoma lines. […] HFF‐1 cells were cultured in DMEM/F‐12 supplemented with 10% FBS. All cells were maintained at 37 °C in a humidified atmosphere of 5% CO2. Cells were routinely tested for mycoplasma infection using the MycoAlert™ PLUS mycoplasma detection kit (Lonza).
# (§6) For the evaluation of the effect of the compounds on cell proliferation, the SRB assay was performed. […] Cells were treated for 48 h with serial dilutions of the compounds (ranging from 0.1 to 30.0 µM). The effects on cell proliferation were assessed by SRB assay, as described, and IC50 values were determined for each cell line using the GraphPad Prism software version 7.0 (La Jolla, CA, USA).
# [7] = system: MDA-MB-468 human breast adenocarcinoma cells; experiment: Sulforhodamine B (SRB) cell proliferation assay, MDA-MB-468; type: cell-based
# Protocol: as §4, §5, §6
# [8] = system: MDA-MB-231 human breast adenocarcinoma cells; experiment: Sulforhodamine B (SRB) cell proliferation assay, MDA-MB-231; type: cell-based
# Protocol: as §4, §5, §6
# [9] = system: non-tumorigenic foreskin fibroblasts HFF-1 cells; experiment: Sulforhodamine B (SRB) cell proliferation assay, HFF-1; type: cell-based, human
# Protocol: as §4, §5, §6
# [10] = molecular target: T5, PKC-βI (Rattus norvegicus, UniProt P68403); experiment: Yeast PKC assay, PKC-βI; type: cell-based, yeast (Saccharomyces cerevisiae)
# T5 construct: expressed in transfected cells; host or cells: Saccharomyces cerevisiae
# From the text: as §1, §2, §3
# [11] = molecular target: T2, PKC-δ; parameters: method as in PMID 29348560; conditions: yeast PKC assay; cited from earlier work
# [12] = yeast growth inhibition, 50% of maximal effect of ARA, mean ± SEM, four experiments, ND = maximal response lower than 50% growth inhibition, read-out: EC50 (nM) PKC-ζ
# [13] = yeast growth inhibition, 50% of maximal effect of PMA, mean ± SEM, four experiments, ND = maximal response lower than 50% growth inhibition, read-out: EC50 (nM) PKC-δ
# [14] = yeast growth inhibition, 50% of maximal effect of PMA, mean ± SEM, four experiments, ND = maximal response lower than 50% growth inhibition, read-out: EC50 (nM) PKC-ε
# [15] = yeast growth inhibition, 50% of maximal effect of PMA, mean ± SEM, four experiments, ND = maximal response lower than 50% growth inhibition, read-out: EC50 (nM) PKC-α
# [16] = Homo sapiens, MCF7, 48 h treatment
# [17] = Homo sapiens, MDA-MB-468, 48 h, 48 h treatment
# [18] = Homo sapiens, MDA-MB-231, 48 h, 48 h treatment
# [19] = Homo sapiens, MDA-MB-468, 48 h treatment
# [20] = Homo sapiens, HFF-1, 48 h treatment
# [21] = Homo sapiens, MDA-MB-231, 48 h treatment
# [22] = yeast growth inhibition, 50% of maximal effect of PMA, mean ± SEM, four experiments, ND = maximal response lower than 50% growth inhibition, read-out: EC50 (nM) PKC-βI
# T5 sequence (P68403 whole entry): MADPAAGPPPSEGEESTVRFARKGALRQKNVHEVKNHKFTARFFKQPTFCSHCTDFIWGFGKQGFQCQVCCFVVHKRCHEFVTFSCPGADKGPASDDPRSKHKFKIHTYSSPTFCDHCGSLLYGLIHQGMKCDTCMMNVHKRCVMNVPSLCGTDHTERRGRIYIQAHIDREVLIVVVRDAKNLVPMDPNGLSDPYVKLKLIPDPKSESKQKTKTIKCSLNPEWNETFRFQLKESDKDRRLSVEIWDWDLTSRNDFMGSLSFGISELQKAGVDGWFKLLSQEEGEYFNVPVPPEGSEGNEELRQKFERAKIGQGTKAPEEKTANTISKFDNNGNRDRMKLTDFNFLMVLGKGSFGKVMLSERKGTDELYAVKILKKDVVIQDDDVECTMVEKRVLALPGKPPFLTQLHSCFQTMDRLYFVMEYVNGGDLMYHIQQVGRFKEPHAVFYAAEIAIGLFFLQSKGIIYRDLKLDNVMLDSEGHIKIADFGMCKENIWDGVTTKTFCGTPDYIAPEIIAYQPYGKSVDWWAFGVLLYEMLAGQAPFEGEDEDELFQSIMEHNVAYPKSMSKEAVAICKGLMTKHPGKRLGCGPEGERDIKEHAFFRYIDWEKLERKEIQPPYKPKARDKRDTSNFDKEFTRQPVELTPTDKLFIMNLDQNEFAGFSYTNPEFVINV
# T2 sequence (P09215 whole entry): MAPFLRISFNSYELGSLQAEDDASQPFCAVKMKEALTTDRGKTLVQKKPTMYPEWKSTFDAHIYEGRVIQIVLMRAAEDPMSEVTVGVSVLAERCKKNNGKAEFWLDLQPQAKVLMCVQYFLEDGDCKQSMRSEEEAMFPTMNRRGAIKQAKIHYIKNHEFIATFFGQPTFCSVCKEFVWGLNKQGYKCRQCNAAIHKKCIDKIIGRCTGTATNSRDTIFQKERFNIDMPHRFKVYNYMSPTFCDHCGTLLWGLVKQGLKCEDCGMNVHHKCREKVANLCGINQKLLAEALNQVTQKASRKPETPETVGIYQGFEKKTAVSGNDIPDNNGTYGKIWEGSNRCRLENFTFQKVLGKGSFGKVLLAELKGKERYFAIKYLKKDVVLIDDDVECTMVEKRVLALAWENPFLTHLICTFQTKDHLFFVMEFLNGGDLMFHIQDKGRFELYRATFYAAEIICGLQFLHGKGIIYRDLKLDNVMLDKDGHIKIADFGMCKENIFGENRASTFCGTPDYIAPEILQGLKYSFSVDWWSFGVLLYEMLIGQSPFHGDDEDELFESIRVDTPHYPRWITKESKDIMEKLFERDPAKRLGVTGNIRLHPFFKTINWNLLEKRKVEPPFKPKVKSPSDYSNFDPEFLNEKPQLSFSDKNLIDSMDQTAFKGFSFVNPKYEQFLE
structure (smiles),measurement,setting,value
"CCCCC/C=C\C/C=C\C/C=C\C/C=C\CCCC(=O)O [ARA, arachidonic acid, reference compound]",EC50,[1]; [12],205 ± 32.6 nM
"CC(C)C1=C(O)C(=O)C2=C(C=C[C@H]3C(C)(C)CCC[C@]23C)C1=O [DeRoy, 6,7-dehydroroyleanone]",IC50,[2],60400 ± 3690 nM
same,EC50,[3]; [13],3.1 ± 0.6 nM
same,EC50,[1],43.8 ± 2.32 nM
same,EC50,[4]; [14],5.8 ± 0.7 nM
same,EC50,[5]; [15],15 ± 1.9 nM
"CC(C)C1=C(O)C(=O)C2=C(C1=O)[C@H](O)[C@@H](O)[C@H]1C(C)(C)CCC[C@]21C [DiRoy, 6β,7α-dihydroxyroyleanone]",IC50,[6]; [16],> 20000 nM
same,IC50,[7]; [17],> 20000 nM
same,IC50,[8]; [18],> 20000 nM
"COc1cccc2c1C(=O)c1c(O)c3c(c(O)c1C2=O)C[C@@](O)(C(=O)CO)C[C@@H]3O[C@H]1C[C@H](N)[C@H](O)[C@H](C)O1 [Doxo, Doxorubicin, reference compound]",IC50,[6]; [16],600 ± 10 nM
same,IC50,[7]; [19],300 ± 40 nM
same,IC50,[9]; [20],100 ± 120 nM
same,IC50,[8]; [21],1200 ± 50 nM
"CCCCCCCCCCCCCC(=O)O[C@@H]1[C@@H](C)[C@@]2(O)[C@@H](C=C(CO)C[C@]3(O)C(=O)C(C)=C[C@@H]23)[C@@H]2C(C)(C)[C@]12OC(C)=O [PMA, phorbol 12-myristate 13-acetate, reference compound]",EC50,[10],243 ± 69.1 nM
same,EC50,[3],574 ± 36.7 nM
same,EC50,[4],1680 ± 46.5 nM
same,EC50,[5],112 ± 18.4 nM
"CC(=O)OC1C2=C(C(=O)C(O)=C(C(C)C)C2=O)C2(C)CCCC(C)(C)C2C1O (stereo not drawn) [Roy, 7α-acetoxy-6β-hydroxyroyleanone]",IC50,[6]; [16],2090 ± 420 nM
same,EC50,[10]; [22],423 ± 67 nM
same,IC50,[7]; 48 h treatment,300 ± 160 nM
same,IC50,[7]; [17],350 nM
same,EC50,[1]; [12],4110 ± 159 nM
same,EC50,[4]; [14],994 ± 63 nM
same,IC50,[9]; [20],1020 ± 280 nM
same,IC50,[8]; 48 h treatment,350 ± 120 nM
same,IC50,[8]; [18],300 nM
same,EC50,[5]; [15],350 ± 42 nM
"CC(=O)OC1=C(C(C)C)C(=O)C2=C(C1=O)C1(C)CCCC(C)(C)C1C(O)C2OC(C)=O (stereo not drawn) [Roy-12-Ac, 7α-acetoxy-6β-hydroxy-12-O-acetylroyleanone]",IC50,[6]; 48 h treatment,5670 ± 240 nM
same,IC50,[7]; 48 h treatment,1600 ± 160 nM
same,IC50,[9]; 48 h treatment,600 ± 40 nM
same,IC50,[8]; 48 h treatment,2430 ± 150 nM
"CC(=O)O[C@H]1C2=C(C(=O)C(OC(=O)c3ccccc3)=C(C(C)C)C2=O)[C@@]2(C)CCCC(C)(C)[C@@H]2[C@@H]1O [Roy-12-Bz, 7α-acetoxy-6β-hydroxy-12-O-benzoylroyleanone]",IC50,[6]; [16],4320 ± 240 nM
same,IC50,[7]; [17],1280 nM
same,IC50,[9]; [20],1160 ± 220 nM
same,IC50,[8]; [18],1650 ± 150 nM
"CC(=O)OC1=C(C(C)C)C(=O)C2=C(C1=O)C1(C)CCCC(C)(C)C1C(OC(C)=O)C2OC(C)=O (stereo not drawn) [RoyAc, 7α,6β-diacetoxy-12-O-acetylroyleanone]",IC50,[6]; 48 h treatment,4250 ± 570 nM
same,IC50,[7]; 48 h treatment,3250 ± 200 nM
same,IC50,[9]; 48 h treatment,4970 ± 340 nM
same,IC50,[8]; 48 h treatment,1860 ± 90 nM
"CC(=O)O[C@H]1C2=C(C(=O)C(OC(=O)c3ccccc3)=C(C(C)C)C2=O)[C@@]2(C)CCCC(C)(C)[C@@H]2[C@@H]1OC(=O)c1ccccc1 [RoyBz, 7α-acetoxy-6β-benzoyloxy-12-O-benzoylroyleanone]",IC50,[6]; [16],1660 ± 100 nM
same,IC50,[7]; [19],1400 ± 80 nM
same,EC50,[11],108 nM
same,IC50,[9]; [20],3580 ± 270 nM
same,IC50,[8]; [21],1500 ± 850 nM
"CCC(=O)OC1=C(C(C)C)C(=O)C2=C(C1=O)C1(C)CCCC(C)(C)C1C(OC(=O)CC)C2OC(C)=O (stereo not drawn) [RoyPr, 7α-acetoxy-6β-propanoyloxy-12-O-propanoylroyleanone]",IC50,[2],28300 ± 2400 nM
same,EC50,[10]; [22],229 ± 21 nM
same,EC50,[3]; [13],325 ± 49 nM
same,EC50,[4]; [14],770 ± 46 nM
same,EC50,[5]; [15],195 ± 16 nM
